Measured values reported in patent US9428447B2, “Bis-(aryl/heteroaryl)-methylene compounds, pharmaceutical compositions containing same and their use for treating cancer” (The Royal Institution For The Advancement of …, priority 2011, dated 2016).

Experiments:
[1] = system: SCC4 cells; assay: LDH cytotoxicity assay, SCC4; format: cell-based, human; settings: vitamin D resistant SCC4 cells; FIGS. 10 and 11
Method: The cytotoxic effects of compounds were screened using a Cytotoxicity Assay Kit (Cayman Chemical), which measures release of the soluble […] enzyme lactate dehydrogenase (LDH) from dying cells into the culture medium using a coupled two-step reaction. LDH in the media catalyzes the reduction of NAD+ to NADH and H+ by oxidation of lactate to pyruvate. LDH-catalyzed NADH production is then measured by following diaphorase catalyzed NADH-dependent reduction of a tetrazolium salt (INT) to highly-colored formazan which absorbs strongly at 490-520 nm.

[2] = system: SCC4 cells; assay: MTS cell proliferation assay, SCC4; format: cell-based, human; settings: vitamin D resistant SCC4 cells; FIGS. 7c, 8 and 9
Description: Dose-dependent effects of compounds on cell cycle progression was monitored using a CellTiter 96 Aqueous Non-Radioactive Cell Proliferation Assay Kit (Promega). The assay composed of solutions of a novel tetrazolium compound (MTS) and an electron coupling reagent (phenazine methosulfate; PMS). MTS is reduced by metabolically active cells into a soluble formazan product that absorbs at 490 nm. The quantity of formazan product absorbing at 490 nm is directly proportional to the number of living cells.

[3] = target: T1, VDR (Homo sapiens (Human), UniProt P11473); assay: VDR agonism: induction of CYP24 gene expression in SCC25 cells (RT/PCR); format: cell-based; settings: for VDR agonism by induction of CYP24 gene expression (screen): test compounds 10 μM, FIG. 1a; for VDR agonist activity/potency (CYP24 induction, dose response): 1d; for induction of CYP24 by the compound blocked (consistent with binding to the VDR): FIG. 1c
T1 sequence (P11473 whole entry): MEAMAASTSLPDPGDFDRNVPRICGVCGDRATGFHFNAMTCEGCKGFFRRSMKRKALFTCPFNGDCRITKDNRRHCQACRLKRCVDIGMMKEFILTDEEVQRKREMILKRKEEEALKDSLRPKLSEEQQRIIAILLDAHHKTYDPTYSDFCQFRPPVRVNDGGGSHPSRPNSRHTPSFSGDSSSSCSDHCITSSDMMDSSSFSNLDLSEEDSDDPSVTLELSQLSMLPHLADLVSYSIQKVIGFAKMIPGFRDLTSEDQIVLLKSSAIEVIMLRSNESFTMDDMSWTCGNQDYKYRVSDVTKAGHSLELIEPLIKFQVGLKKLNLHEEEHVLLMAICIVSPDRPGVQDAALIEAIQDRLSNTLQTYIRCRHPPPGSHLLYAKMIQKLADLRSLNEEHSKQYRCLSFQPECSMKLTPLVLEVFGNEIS
Method: RNA isolation and RT/PCR analysis. PCR primers against CYP24 (forward, 5',5'-[NT], reverse, 5'-[NT] designed using Primer3 software as described and used in […]-Mendoza, Quach, T., Dabbas, B., Hudon, J., Liao, X., Palijan, A., Gleason, J. L., and White, J. H. (2008) Incorporation of histone deacetylase inhibition into the structure of a nuclear receptor agonist. Proc. Nat. Acad. Sci. […] After treatment, cells were washed with PBS, homogenized with 1 ml TRIzol Reagent (Invitrogen, Carlsbad, Calif.), kept at room temperature for 2-5 min, collected and kept at -80° C. for at least 1 h. After, thawing 0.2 ml chloroform was added. After vigorous mixing and storing for 10 min, mixtures were centrifuged (10,000 rpm, 15 min, 4° C.) and the upper transparent layer was transferred to a new tube. 0.5 ml isopropanol was added and the new solution was mixed. After centrifuging at 4° C., the supernatant was discarded and 1 ml of 75% ethanol was added. After centrifuging and discarding the supernatant, the pellet was air-dried for 5-10 min, and then dissolved in ddH2O. RNA concentrations were measured using a spectrophotometer, and 1-3 μg of RNA were loaded for reverse transcriptase reactions (total volume: 20 μl). 80 μl of ddH2O was added to the RT-product, and 1.5 μl of that was used as template for the PCR reaction. Reverse transcriptase (Super Script II) was purchased from Invitrogen (Carlsbad, Calif.). DNA polymerase and dNTP's were ordered from Fermentas (Glen Burnie, Md.).

[4] = target: VDR ligand binding domain (Homo sapiens (Human), UniProt P11473); assay: Fluorescence polarization (FP) competition assay; settings: 0.5 nM fluorescent tracer
Chain of VDR ligand binding domain (P11473 127-423): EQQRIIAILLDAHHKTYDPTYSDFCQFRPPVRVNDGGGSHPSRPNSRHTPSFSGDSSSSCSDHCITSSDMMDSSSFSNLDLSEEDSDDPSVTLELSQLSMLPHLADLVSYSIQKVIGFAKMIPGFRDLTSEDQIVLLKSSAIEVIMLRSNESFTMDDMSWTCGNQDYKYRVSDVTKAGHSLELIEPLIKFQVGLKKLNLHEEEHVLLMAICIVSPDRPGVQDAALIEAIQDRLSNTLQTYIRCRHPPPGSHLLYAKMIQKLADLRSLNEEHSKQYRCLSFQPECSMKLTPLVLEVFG
Method: Fluorescence polarization (FP) competition assay. The assay was performed using a vitamin D receptor competitor assay kit (Polarscreen, Invitrogen, Carlsbad, Calif.) set up using 0.5 nM fluorescent tracer. The assay measures the decrease in FP accompanying loss of binding to the relatively high molecular weight VDR ligand binding domain of the fluorescent tracer due to the presence of a competitor. FP was measured using an Analyst HT fluorimeter (Molecular Devices) configured with absorption and emissions filters as recommended by the kit manufacturers. Dose response curves and IC50 determination were determined using XLfit (IDBS) Sigmoidal Dose-Response Model [fit=(A+((B−A)/(1+((C/x)^D)))); inv=(C/((((B−A)/(y−A))−1)^(1/D))); res=(y−fit)].

[5] = target: T1, VDR; assay: Chromatin immunoprecipitation (ChIP) assay, CYP24 promoter, SCC25 cells; format: cell-based; settings: FIG. 1e
Method: Chromatin immunoprecipitation assays. ChIP assays were performed with sonicated extracts of SCC25 cells as described (see Wang, T.-T. et al. J Immunol (2004) 173:2909-2912). […] Immunoprecipitations were performed using normal rabbit IgG, anti-VDR antibody (c-20) (Santa Cruz Biotechnology, Santa Cruz, Calif.). […].

[6] = system: IGROV1; assay: NCI 60 cell panel: IGROV1; format: cell-based; settings: Ovarian Cancer
[7] = system: SCC25 cells; assay: EdU cell growth assay, SCC25
Method: (§2) EdU Cell Growth Assay. Click-iT EdU Alexa Fluor high-throughput imaging (HCS) assay for cell proliferation. HCS assays were performed on AT84 mouse squamous carcinoma cell line (ATCC) following the manufacturer's instruction (Molecular Probes, Invitrogen). […] All samples were in triplicate.

[8] = system: AT84 cells; assay: EdU cell growth assay, AT84
Method: as §2

[9] = system: 60 cell panel of human carcinoma cell lines; assay: National Cancer Institute 60 cell panel (overall); format: cell-based
[10] = system: SCC4 cells; assay: EdU cell growth assay, SCC4; settings: 1,25D-resistant SCC4 cells; FIG. 2e, f
Method: as §2

[11] = system: total intracellular HDAC activity; assay: HDACi activity with fluorogenic substrate in live SCC25 cells; format: cell-based, human; settings: increasing concentration, FIG. 2a, b
Description: (§1) This assay measures the inhibition of total intracellular HDAC activity and determines the capacity of compounds to inhibit HDACs in the form of their naturally occurring complexes.

[12] = system: total intracellular HDAC activity; assay: HDACi activity with fluorogenic substrate in live SCC4 cells; format: cell-based, human; settings: increasing concentration, FIG. 2a, b
Description: as §1

CCC(CC)(c1ccc(OCC(O)C(C)(C)C)c(C)c1)c1ccc(OCC(=O)NO)c(Br)c1 (stereo not drawn) [DK-309, 2-(2-bromo-4-(3-(4-(2-hydroxy-3,3-dimethylbutoxy)-3-methylphenyl)pentan-3-yl)phenoxy)-N-hydroxyacetamide]
cytotoxicity (LDH release) [1]: good cytotoxicity

CCC(CC)(c1ccc(OCC(O)C(C)(C)C)c(C)c1)c1cc(C)c(CCC(=O)NO)s1 (stereo not drawn) [DK-178, N-hydroxy-3-(5-(3-(4-(2-hydroxy-3,3-dimethylbutoxy)-3-methylphenyl)pentan-3-yl)-3-methylthiophen-2-yl)propanamide]
antiproliferative potency (MTS) [2]: low micromolar potency

CCC(CC)(c1ccc(OCC(=O)NO)c(C)c1)c1ccc(OCC(O)CO)c(C)c1 (stereo not drawn) [JF-B40]
VDR agonism by induction of CYP24 gene expression (screen) [3]: completely inactive as VDR agonists

CCC(CC)(c1ccc(OCC(=O)NO)c(C)c1)c1ccc(OC[C@@H](O)C(C)(C)C)c(C)c1 [JF-C72]
antiproliferative potency (MTS) [2]: low micromolar potency | VDR agonist activity/potency (CYP24 induction, dose response) ([3]; FIG. 1b): VDR agonists with similar potencies | IC50 [4]: ~35 nM | binding of the VDR to the vitamin D response element in the proximal promoter of the CYP24 gene (ChIP) [5]: induced binding of the VDR to the vitamin D response element

CCC(CC)(c1ccc(OCC(O)C(C)(C)C)c(C)c1)c1c[nH]c2cc(CCC(=O)NO)ccc12 (stereo not drawn) [DK-222]
antiproliferative potency (MTS) [2]: low micromolar potency | cytotoxicity (LDH release) [1]: good cytotoxicity

CCC(CC)(c1ccc(CCC(=O)NO)c(C)c1)c1ccc(OC[C@H](O)C(C)(C)C)c(C)c1 [JFD-50]
antiproliferative potency (MTS) [2]: low micromolar potency

CCC(CC)(c1ccc(OCC(=O)NO)c(C)c1)c1ccc(OCC(O)C(C)(C)C)c(C)c1 (racemic) [JF-B01, N-Hydroxy-2-(4-(3-(4-(2-hydroxy-3,3-dimethylbutoxy)-3-methylphenyl)pentan-3-yl)-2-methylphenoxy)acetamide]
TGI [6]: 5.25E−6 | antiproliferative potency relative to 1,25D (fold less potent) [7]: 10 fold | antiproliferative potency (MTS) [2]: low micromolar potency | antiproliferative potency relative to 1,25D (fold less potent) [8]: 10 fold | VDR agonist potency relative to 1,25D (fold lower) ([3]; FIG. 1b): approximately 10 fold | VDR agonist potency relative to LG190178 ([3]; FIG. 1b): equal to or greater than that of LG190178 | VDR agonist activity/potency (CYP24 induction, dose response) ([3]; FIG. 1b): efficacious agonist | induction of CYP24 by the compound blocked (consistent with binding to the VDR) [3]: blocked | VDR agonism by induction of CYP24 gene expression (screen) [3]: showed any agonist activity against VDR | antiproliferative activity in the 60 cell panel ([9]; all cell lines): displayed antiproliferative activity in all cell lines | full growth inhibition concentration ([9]; melanoma cell lines, 8 out of 9 cell lines): ≤ 7 µM

CCC(CC)(c1ccc(OCC(O)CO)c(C)c1)c1ccc(OCC(O)C(C)(C)C)c(C)c1 (stereo not drawn) [LG190178]
inhibition of proliferation (EdU incorporation) [10]: failed to block SCC4 proliferation

CCC(CC)(c1ccc(OCC(=O)O)c(C)c1)c1ccc(OCC(=O)C(C)(C)C)c(C)c1 [JF-C11]
VDR agonism by induction of CYP24 gene expression (screen) [3]: showed some agonist activity

CCC(CC)(c1ccc(OCC(=O)NO)c(C)c1)c1ccc(OCC(=O)NO)c(C)c1 [JF-B06]
VDR agonism by induction of CYP24 gene expression (screen) [3]: completely inactive as VDR agonists

CCC(CC)(c1ccc(OCC(=O)NO)cc1)c1ccc(OCC(O)C(C)(C)C)c(C)c1 (stereo not drawn) [DK-366, N-hydroxy-2-(4-(3-(4-(2-hydroxy-3,3-dimethylbutoxy)-3-methylphenyl)pentan-3-yl)phenoxy)acetamide]
antiproliferative potency (MTS) [2]: low micromolar potency | cytotoxicity (LDH release) [1]: good cytotoxicity

CCC(CC)(c1ccc(OCCCC(=O)NO)c(C)c1)c1ccc(OC[C@H](O)C(C)(C)C)c(C)c1 [JFD-15]
antiproliferative potency (MTS) [2]: low micromolar potency

CCC(CC)(c1ccc(OCC(=O)NO)c(C)c1)c1ccc(OCC(C)(C)O)c(C)c1 [JF-B53, N-Hydroxy-2-(4-(3-(4-(2-hydroxy-2-methylpropoxy)-3-methylphenyl)pentan-3-yl)-2-methylphenoxy)acetamide]
VDR agonist activity/potency (CYP24 induction, dose response) ([3]; FIG. 1b): showed VDR agonist activity, but with reduced potency | induction of CYP24 by the compound blocked (consistent with binding to the VDR) [3]: blocked

CCC(CC)(c1ccc(OCC(=O)NO)c(C)c1)c1ccc(OCC(=O)C(C)(C)C)c(C)c1 [JF-B59, 2-(4-(3-(4-(3,3-dimethyl-2-oxobutoxy)-3-methylphenyl)pentan-3-yl)-2-methylphenoxy)-N-hydroxyacetamide]
VDR agonist potency relative to JF-B01 (fold lower) ([3]; FIG. 1b): > 10 fold

CCC(O)(CC)COc1ccc(C(CC)(CC)c2ccc(OCC(=O)NO)c(C)c2)cc1C [JF-B54, 2-(4-(3-(4-(2-Ethyl-2-hydroxybutoxy)-3-methylphenyl)pentan-3-yl)-2-methylphenoxy)-N-hydroxyacetamide]
inhibition of total intracellular HDAC activity (substrate deacetylation) [11]: the most potent | VDR agonist activity/potency (CYP24 induction, dose response) ([3]; FIG. 1b): showed VDR agonist activity, but with reduced potency | induction of CYP24 by the compound blocked (consistent with binding to the VDR) [3]: blocked | inhibition of total intracellular HDAC activity (substrate deacetylation) [12]: the most potent

CCC(CC)(c1ccc(OCCO)c(C)c1)c1ccc(OCC(=O)NO)c(C)c1 [JF-B52, N-Hydroxy-2-(4-(3-(4-(2-hydroxyethoxy)-3-methylphenyl)pentan-3-yl)-2-methylphenoxy)acetamide]
VDR agonism by induction of CYP24 gene expression (screen) [3]: completely inactive as VDR agonists

CCC(CC)(c1ccc(OCC(=O)NO)c(C)c1)c1ccc(OC[C@H](O)C(C)(C)C)c(C)c1 [JF-C71, N-Hydroxy-2-(4-(3-(4-((2R)-hydroxy-3,3-dimethylbutoxy)-3-methylphenyl)pentan-3-yl)-2-methylphenoxy)acetamide]
antiproliferative potency (MTS) [2]: low micromolar potency | VDR agonist activity/potency (CYP24 induction, dose response) ([3]; FIG. 1b): VDR agonists with similar potencies | IC50 [4]: ~100 nM | binding of the VDR to the vitamin D response element in the proximal promoter of the CYP24 gene (ChIP) [5]: induced binding of the VDR to the vitamin D response element

CCC(CC)(c1ccc(OCC(O)C(C)(C)C)c(C)c1)c1cn(C)c2cc(CCC(=O)NO)ccc12 (stereo not drawn) [DK-234, N-hydroxy-3-(3-(3-(4-(2-hydroxy-3,3-dimethylbutoxy)-3-methylphenyl)pentan-3-yl)-1-methyl-1H-indol-6-yl)propanamide]
antiproliferative potency (MTS) [2]: low micromolar potency

CCC(CC)(c1ccc(OCC(=O)NO)c(C)c1)c1ccc(OCC(CO)CO)c(C)c1 [JF-B21]
VDR agonism by induction of CYP24 gene expression (screen) [3]: completely inactive as VDR agonists

CCC(CC)(c1ccc(OCCCCCC(=O)NO)cc1)c1ccc(OCC(O)C(C)(C)C)c(C)c1 (stereo not drawn) [DK-367]
antiproliferative potency (MTS) [2]: low micromolar potency
